# Paper PMC9732823, “Discovery of Dual Aβ/Tau Inhibitors and Evaluation of Their Therapeutic Effect on a Drosophila Model of Alzheimer’s Disease” (ACS Chemical Neuroscience, 2022)
# Experiments:
# Tau protein = target: T1, Tau protein (Homo sapiens, UniProt P10636); test: Inhibition of Tau aggregation in intact E. coli cells overexpressing Tau (ThS fluorescence); format: cell-based, Escherichia coli
# T1 construct: expressed in transfected cells; host or cells: Escherichia coli BL21 (DE3) with pTARA and pRKT42
# T1 sequence (P10636 1-441 isoform P10636-8): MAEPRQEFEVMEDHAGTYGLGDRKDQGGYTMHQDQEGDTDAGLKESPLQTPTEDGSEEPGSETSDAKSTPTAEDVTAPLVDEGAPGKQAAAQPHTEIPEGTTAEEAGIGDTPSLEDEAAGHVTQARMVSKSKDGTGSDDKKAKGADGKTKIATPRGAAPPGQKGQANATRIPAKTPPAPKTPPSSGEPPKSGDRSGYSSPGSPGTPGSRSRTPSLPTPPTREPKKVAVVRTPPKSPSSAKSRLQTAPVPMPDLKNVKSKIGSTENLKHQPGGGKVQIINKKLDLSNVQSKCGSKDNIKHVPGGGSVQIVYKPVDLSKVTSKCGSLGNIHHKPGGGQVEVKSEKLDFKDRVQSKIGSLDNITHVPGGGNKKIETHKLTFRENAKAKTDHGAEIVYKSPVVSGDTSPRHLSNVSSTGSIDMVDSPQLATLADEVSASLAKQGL
# In short: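 E. coli BL21(DE3) expressing four-repeat Tau, arabinose-induced in M9 with 25 μM ThS, grown overnight at 37 °C with compound at 10 μM final. ThS emission at 485 nm (excitation 440 nm) normalized to ABS600; 100% = induced DMSO control, 0% = noninduced cells.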
# preaggregated Aβ42 = target: T2, preaggregated Aβ42 (Homo sapiens, UniProt P05067); test: Optical properties of 23 in the presence of aggregated Aβ42 (fluorescence emission spectra); format: binding; details: 23 0.375 μM, Aβ42 0.75 μM, Gly-NaOH buffer 50 mM pH 8.5, λexc = 374 nm
# T2 construct: (HFIP)-pretreated Aβ42 samples (Bachem AG, Switzerland); purchased Bachem AG, Switzerland
# T2 sequence (P05067 672-713 limits assumed): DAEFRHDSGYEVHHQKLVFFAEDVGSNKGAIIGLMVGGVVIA
# Source text: The interaction of a fluorescent compound with three-dimensionally organized Aβ42 fibrils may lead to a change in its fluorescent properties as a consequence of either a reduction of flexibility due to multiple-interaction points and/or of a change in compound–solvent interactions because of the insertion of the compound within fibril helices. […] This assay setup allows the use of a slightly higher amount of DMSO, which is sufficient to grant compound solubility, because addition of the tested compound to Aβ42 samples is performed when fibrillization has already occurred.
# Thus, we recorded the emission spectra of compound 23 in the absence and presence of preaggregated Aβ42.
# As reported in a previously published protocol,[42] 1,1,1,3,3,3,-hexafluoro-2-propanol (HFIP)-pretreated Aβ42 samples (Bachem AG, Switzerland) were solubilized with a CH3CN/0.3 mM Na2CO3/250 mM NaOH (48.4:48.4:3.2) mixture to obtain a 500 μM solution. […]
# A 1.5 mM stock solution of 23 in methanol was prepared and diluted in 50 mM glycine–NaOH buffer (pH 8.5) to a final concentration of 0.375 μM. Excitation and emission fluorescence spectra in the absence and in the presence of preaggregated Aβ42 (0.75 μM) were recorded using the following instrument setup: λexc = 374 nm, emission range = 400–600 nm; λem = 473 nm; excitation range = 250–460 nm; bandwidth (Ex) = 5 nm; bandwidth (Em) = 5 nm; scanning speed = […].
# [1] = tested on: Arctic Aβ42 Drosophila flies; test: Lifespan analysis in Arctic Aβ42 Drosophila flies; details: 20 μM in fly food; days 5, 10, 20 post-eclosion
# Experimental: As longevity is a phenotype that can be rapidly measured in this in vivo AD model, we first assessed changes in Drosophila’s lifespan with and without treatment with 22 and 23 (20 μM). […] Doxycycline was tested at 50 μM, a concentration used in similar previous experiments.[59]
# The transactivating protein GAL4 is placed under the control of a specific promoter, with its own spatial and temporal patterns, in this case, Elav, whereas the upstream activation sequence (UAS) localized upstream, the locus controlled by the UAS-Gal4; in our study, UAS expresses construct for the E22G variant of Aβ42 (Arctic Aβ42) (AlzArc2).[56],[64] Around 150 flies (half female/male) for each compound tested were collected and divided into groups of 25 flies. At the top of the media, 25 μL of doxycycline (50 μM), 22 (20 μM), or 23 (20 μM) were added fresh anytime the flies were flipped.
# Briefly, males and females 25 per vial were kept at 25 °C.
smiles,measurement,setting,value
"CN(C)CCN1C(=O)S/C(=C\c2ccc3c(c2)C(C)(C)c2cc(/C=C4\SC(=O)N(CCN(C)C)C4=O)ccc2-3)C1=O [Compound 23, (5Z,5′Z)-5,5′-((9,9-Dimethyl-9H-fluorene-2,7-diyl)bis(methanylylidene))bis(3-(2-(dimethylamino)ethyl)thiazolidine-2,4-dione)]",% inhibition Tau aggregation @ 10 μM,"Tau protein; intact E. coli cells, compound 10 μM, mean ± SEM of four independent experiments, 10 µM",41.9 ± 3.9%
same,inhibition at 10 µM,"Tau protein; read-out: % inhibition Tau aggregation @ 10 μM, intact E. coli cells, compound 10 μM, mean ± SEM of four independent experiments",> 40%
same,change of fluorescence emission upon binding to preaggregated Aβ42,preaggregated Aβ42,strong hyperchromic effect upon binding
same,lifespan of Aβ42 Drosophila flies,[1],increase in longevity
